These results are taken from ChEMBL document CHEMBL4393690, “Acylated sulfonamide adenosines as potent inhibitors of the adenylate-forming enzyme superfamily” (Eur J Med Chem, 2019).

In test [1] the target is Serine--tRNA ligase (Escherichia coli (strain K12)) (UniProt P0A8L1). The test can be described thus: Inhibition of recombinant Escherichia coli BL21(DE3) seryl-tRNA synthetase expressed in Escherichia coli Rosetta 2 (DE3) assessed as reduction in tRNA aminoacylation at 2 uM preincubated for 10 mins in presence of [14C]-isoleucin and tRNA followed by ATP addition and measured after 6 mins by scintillation counting method.

The next test concerns the target Isoleucine--tRNA ligase (Escherichia coli K-12, UniProt P00956). The test can be described thus: Inhibition of recombinant Escherichia coli BL21(DE3) isoleucyl-tRNA synthetase expressed in Escherichia coli Rosetta 2 (DE3) assessed as reduction in tRNA aminoacylation preincubated for 10 mins in presence of [14C]-isoleucin and tRNA followed by ATP addition and measured after 6 mins by scintillation counting method.

Isoleucine--tRNA ligase, sequence (P00956 whole entry): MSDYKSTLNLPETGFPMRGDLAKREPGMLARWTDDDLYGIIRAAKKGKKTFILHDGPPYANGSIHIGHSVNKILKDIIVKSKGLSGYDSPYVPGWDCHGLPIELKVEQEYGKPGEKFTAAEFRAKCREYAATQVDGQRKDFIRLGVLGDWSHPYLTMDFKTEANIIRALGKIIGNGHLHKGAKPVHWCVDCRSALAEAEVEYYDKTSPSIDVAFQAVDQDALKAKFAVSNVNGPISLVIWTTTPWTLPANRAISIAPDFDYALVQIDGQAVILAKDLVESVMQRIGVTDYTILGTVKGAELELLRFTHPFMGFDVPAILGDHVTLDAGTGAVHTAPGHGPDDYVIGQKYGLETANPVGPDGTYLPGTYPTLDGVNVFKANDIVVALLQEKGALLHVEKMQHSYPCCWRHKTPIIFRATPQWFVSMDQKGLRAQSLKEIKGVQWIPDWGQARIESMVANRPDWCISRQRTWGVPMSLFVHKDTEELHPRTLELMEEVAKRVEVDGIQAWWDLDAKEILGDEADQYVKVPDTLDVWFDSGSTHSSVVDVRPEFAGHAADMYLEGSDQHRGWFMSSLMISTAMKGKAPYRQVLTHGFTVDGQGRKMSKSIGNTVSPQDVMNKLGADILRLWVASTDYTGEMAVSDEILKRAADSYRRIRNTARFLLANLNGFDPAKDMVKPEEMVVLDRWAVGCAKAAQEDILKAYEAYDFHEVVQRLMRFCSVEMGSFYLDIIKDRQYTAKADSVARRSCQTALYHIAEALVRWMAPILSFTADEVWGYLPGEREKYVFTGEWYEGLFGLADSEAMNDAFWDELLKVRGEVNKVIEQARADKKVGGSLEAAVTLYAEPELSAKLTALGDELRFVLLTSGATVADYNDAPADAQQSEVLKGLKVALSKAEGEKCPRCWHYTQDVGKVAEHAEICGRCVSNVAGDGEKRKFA
Serine--tRNA ligase (Escherichia coli (strain K12)), sequence (P0A8L1 whole entry, looked up): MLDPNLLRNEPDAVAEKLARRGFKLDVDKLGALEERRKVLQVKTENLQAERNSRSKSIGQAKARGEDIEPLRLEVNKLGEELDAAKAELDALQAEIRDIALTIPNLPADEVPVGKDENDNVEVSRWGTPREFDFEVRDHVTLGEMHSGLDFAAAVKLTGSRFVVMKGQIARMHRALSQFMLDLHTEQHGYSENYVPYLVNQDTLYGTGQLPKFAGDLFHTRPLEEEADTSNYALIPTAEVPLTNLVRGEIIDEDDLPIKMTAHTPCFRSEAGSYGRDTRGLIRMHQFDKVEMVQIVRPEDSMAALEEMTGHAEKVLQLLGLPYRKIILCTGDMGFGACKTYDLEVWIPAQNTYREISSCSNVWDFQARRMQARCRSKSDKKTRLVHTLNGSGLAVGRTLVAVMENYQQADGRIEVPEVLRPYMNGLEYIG

In general, inhibition refers to the percentage by which the read-out fell short of the control. Take `Nc1ncnc2c1ncn2[C@@H]1O[C@H](CCS(=O)(=O)NC(=O)[C@@H](N)CO)[C@@H](O)[C@H]1O`: the inhibition in test [1] turned out to be 30%. As usually defined, the IC50 is the concentration that inhibits the measured activity by half. With `CC[C@H](C)[C@H](N)C(=O)NS(=O)(=O)CC[C@H]1O[C@@H](n2cnc3c(N)ncnc32)[C@H](O)[C@@H]1O`, the IC50 at Isoleucine--tRNA ligase worked out at 6.8 nM. The Ki at Isoleucine--tRNA ligase (read-out: Ki(app)) was 1.2 nM.
